How the values were obtained:
[1] = test system: B. subtilis 168; assay: fitness (endpoint OD595 vs no drug) (fraction); higher = more growth
In short: (§1)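 In 384-well plates at 37 °C, cultures began at OD595 0.01 in 30 µl, with 55 µl used for S. pneumoniae. OD595 readings every 30 min for 14 h were corrected by the first reading. Fitness divides the stationary-phase transition optical density by the robust mean of no-drug control wells. The result is capped at 1.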

[2] = test system: S. aureus DSM 20231; assay: as above
In short: as §1

[3] = test system: S. aureus Newman; assay: as above
In short: as §1

[4] = test system: S. pneumoniae D39V; assay: as above
In short: as §1

[5] = test system: B. subtilis 168; assay: Bliss interaction score (quartile over a dose matrix) (fitness difference); higher = more antagonism (negative = synergy)
In short: (§2)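 Combination data were used to infer fitness under each single drug. Fitness is the OD595 at entry into stationary phase divided by the robust mean of the plate's no-drug wells, with a cap of 1. The Bliss score is the observed minus the expected product fitness, summarised by quartiles over technical, biological and donor/recipient replicates.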

[6] = test system: S. aureus DSM 20231; assay: as above
In short: as §2

[7] = test system: S. aureus Newman; assay: as above
In short: as §2

[8] = test system: S. pneumoniae D39V; assay: as above
In short: as §2
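Throughout, for Bliss interaction score (quartile over a dose matrix): first quartile when negative (synergy) and third quartile when positive (antagonism).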

CN[C@@H]1[C@H](O)[C@H](NC)[C@H]2O[C@@]3(O)C(=O)C[C@@H](C)O[C@H]3O[C@@H]2[C@H]1O [Spectinomycin] + CC1=C\[C@@H](O)CC(=O)Cc2nc(co2)C(=O)N2CCC=C2C(=O)O[C@H](C(C)C)[C@H](C)/C=C/C(=O)NC\C=C\1 [Virginiamycin M1]
fitness
Details	first compound 2 µg/mL	first compound 4 µg/mL	first compound 8 µg/mL	first compound 16 µg/mL
[1], partner 0.0625 µg/mL	0.916	0.979	0.915	–
[1], partner 0.125 µg/mL	0.982	0.941	0.947	–
[1], partner 0.25 µg/mL	≥ 1	0.972	0.875	–
[2], partner 0.0625 µg/mL	–	0.933	0.993	0.809
[2], partner 0.125 µg/mL	–	≥ 1	0.896	0.83
[2], partner 0.25 µg/mL	–	0.961	0.873	0.791
[3], partner 0.0625 µg/mL	–	0.936	0.997	0.934
[3], partner 0.125 µg/mL	–	0.944	≥ 1	0.961
[3], partner 0.25 µg/mL	–	0.942	≥ 1	0.937
[4], partner 0.5 µg/mL	–	0.972	0.93	–
[4], partner 1 µg/mL	–	0.96	0.916	–
[4], partner 2 µg/mL	–	0.931	0.889	0.8

fitness, one replicate
Details	[2]	[3]	[4]
first compound 4 µg/mL, partner 0.15 µg/mL	–	–	≥ 1
first compound 4 µg/mL, partner 0.3 µg/mL	–	–	0.939
first compound 4 µg/mL, partner 0.5 µg/mL	0.769	0.839	–
first compound 4 µg/mL, partner 1 µg/mL	0.735	0.882	–
first compound 4 µg/mL, partner 2 µg/mL	–	0.769	–
first compound 8 µg/mL, partner 0.15 µg/mL	–	–	0.944
first compound 8 µg/mL, partner 0.3 µg/mL	–	–	0.927
first compound 8 µg/mL, partner 0.5 µg/mL	0.735	0.817	–
first compound 8 µg/mL, partner 1 µg/mL	0.691	0.887	–
first compound 8 µg/mL, partner 2 µg/mL	–	0.787	–
first compound 16 µg/mL, partner 0.15 µg/mL	–	–	0.894
first compound 16 µg/mL, partner 0.3 µg/mL	–	–	0.93
first compound 16 µg/mL, partner 0.5 µg/mL	0.65	0.876	0.857
first compound 16 µg/mL, partner 1 µg/mL	0.704	0.777	0.731
first compound 16 µg/mL, partner 2 µg/mL	–	0.686	–
first compound 32 µg/mL, partner 0.0625 µg/mL	0.643	0.654	–
first compound 32 µg/mL, partner 0.125 µg/mL	0.736	0.629	–
first compound 32 µg/mL, partner 0.25 µg/mL	0.637	0.602	–
first compound 64 µg/mL, partner 0.0625 µg/mL	0.0659	0.0794	–
first compound 64 µg/mL, partner 0.125 µg/mL	0.0603	0.124	–
first compound 64 µg/mL, partner 0.25 µg/mL	0.0858	0.124	–

Details	Bliss interaction score
[5]	0.042
[6]	-0.0719
[7]	0.0692
[8]	0.052

CN[C@@H]1[C@H](O)[C@H](NC)[C@H]2O[C@@]3(O)C(=O)C[C@@H](C)O[C@H]3O[C@@H]2[C@H]1O [Spectinomycin] + CCCCCCCCCC(=O)N[C@@H]1[C@H]([C@@H]([C@H](O[C@H]1OC2=C3C=C4C=C2OC5=C(C=C(C=C5)[C@H]([C@H]6C(=O)N[C@@H](C7=C(C(=CC(=C7)O)OC8[C@H]([C@H]([C@@H]([C@H](O8)CO)O)O)O)C9=C(C=CC(=C9)[C@H](C(=O)N6)NC(=O)[C@@H]4NC(=O)[C@@H]1C2=CC(=CC(=C2)OC2=C(C=CC(=C2)[C@H](C(=O)N[C@H](CC2=CC(=C(O3)C=C2)Cl)C(=O)N1)N)O)O)O)C(=O)O)O[C@H]1[C@@H]([C@H]([C@@H]([C@H](O1)CO)O)O)NC(=O)C)Cl)CO)O)O [Teicoplanin]
fitness, main component drawn
Details	first compound 4 µg/mL	first compound 8 µg/mL	first compound 16 µg/mL
[2], partner 0.1562 µg/mL	0.938	≥ 1	0.889
[2], partner 0.3125 µg/mL	0.962	0.969	0.919
[2], partner 0.625 µg/mL	≥ 1	≥ 1	0.985
[3], partner 0.1562 µg/mL	≥ 1	≥ 1	0.993
[3], partner 0.3125 µg/mL	≥ 1	0.998	0.973
[3], partner 0.625 µg/mL	0.817	0.705	0.831

fitness, one replicate, main component drawn
Details	partner 0.1562 µg/mL	partner 0.3125 µg/mL	partner 0.62 µg/mL	partner 0.625 µg/mL	partner 1.24 µg/mL	partner 2.48 µg/mL
[2], first compound 32 µg/mL	0.788	0.834	–	0.992	–	–
[2], first compound 64 µg/mL	0.0706	0.0748	–	0.0694	–	–
[3], first compound 4 µg/mL	–	–	0.792	–	0.743	0.411
[3], first compound 8 µg/mL	–	–	0.83	–	0.68	0.505
[3], first compound 16 µg/mL	–	–	0.854	–	0.645	0.428
[3], first compound 32 µg/mL	0.639	0.694	–	0.666	–	–
[3], first compound 64 µg/mL	0.0786	0.071	–	0.0311	–	–

main component drawn
Details	Bliss interaction score
[5]	0.138
[6]	0.0832
[7]	0.0966
[8]	-0.0746

CC(=O)NC[C@H]1CN(c2ccc(N3CCOCC3)c(F)c2)C(=O)O1 [Linezolid] + Cc1onc(-c2ccccc2)c1C(=O)N[C@@H]1C(=O)N2[C@@H]1SC(C)(C)[C@@H]2C(=O)O [Oxacillin]
one replicate
Details	fitness
[1], first compound 0.0625 µg/mL, partner 0.0078 µg/mL	0.913
[1], first compound 0.0625 µg/mL, partner 0.0155 µg/mL	0.809
[1], first compound 0.0625 µg/mL, partner 0.031 µg/mL	0.81
[1], first compound 0.125 µg/mL, partner 0.0078 µg/mL	0.594
[1], first compound 0.125 µg/mL, partner 0.0155 µg/mL	0.553
[1], first compound 0.125 µg/mL, partner 0.031 µg/mL	0.529
[1], first compound 0.125 µg/mL, partner 0.075 µg/mL	0.611
[1], first compound 0.125 µg/mL, partner 0.15 µg/mL	0.0387
[1], first compound 0.125 µg/mL, partner 0.3 µg/mL	0.0501
[1], first compound 0.25 µg/mL, partner 0.0078 µg/mL	0.0705
[1], first compound 0.25 µg/mL, partner 0.0155 µg/mL	0.0604
[1], first compound 0.25 µg/mL, partner 0.031 µg/mL	0.0611
[1], first compound 0.25 µg/mL, partner 0.075 µg/mL	0.241
[1], first compound 0.25 µg/mL, partner 0.15 µg/mL	0.0531
[1], first compound 0.25 µg/mL, partner 0.3 µg/mL	0.0536
[1], first compound 0.5 µg/mL, partner 0.075 µg/mL	0.0447
[1], first compound 0.5 µg/mL, partner 0.15 µg/mL	0.0563
[1], first compound 0.5 µg/mL, partner 0.3 µg/mL	0.0594
[2], first compound 1 µg/mL, partner 0.0156 µg/mL	0.0486
[2], first compound 1 µg/mL, partner 0.0312 µg/mL	0.0427
[2], first compound 1 µg/mL, partner 0.0625 µg/mL	0.0557

Details	fitness
[1], first compound 0.125 µg/mL, partner 0.002 µg/mL	0.567
[1], first compound 0.125 µg/mL, partner 0.004 µg/mL	0.513
[1], first compound 0.125 µg/mL, partner 0.008 µg/mL	0.515
[1], first compound 0.25 µg/mL, partner 0.002 µg/mL	0.112
[1], first compound 0.25 µg/mL, partner 0.004 µg/mL	0.108
[1], first compound 0.25 µg/mL, partner 0.008 µg/mL	0.102
[1], first compound 0.5 µg/mL, partner 0.002 µg/mL	0.0413
[1], first compound 0.5 µg/mL, partner 0.004 µg/mL	0.0471
[1], first compound 0.5 µg/mL, partner 0.008 µg/mL	0.0549
[2], first compound 0.125 µg/mL, partner 0.0156 µg/mL	0.791
[2], first compound 0.125 µg/mL, partner 0.0312 µg/mL	0.665
[2], first compound 0.125 µg/mL, partner 0.0625 µg/mL	0.52
[2], first compound 0.25 µg/mL, partner 0.0156 µg/mL	0.52
[2], first compound 0.25 µg/mL, partner 0.0312 µg/mL	0.501
[2], first compound 0.25 µg/mL, partner 0.0625 µg/mL	0.415
[2], first compound 0.5 µg/mL, partner 0.0156 µg/mL	0.21
[2], first compound 0.5 µg/mL, partner 0.0312 µg/mL	0.188
[2], first compound 0.5 µg/mL, partner 0.0625 µg/mL	0.156
[4], first compound 0.105 µg/mL, partner 0.01 µg/mL	0.917
[4], first compound 0.105 µg/mL, partner 0.02 µg/mL	0.872
[4], first compound 0.105 µg/mL, partner 0.04 µg/mL	0.42
[4], first compound 0.2 µg/mL, partner 0.01 µg/mL	0.78
[4], first compound 0.2 µg/mL, partner 0.02 µg/mL	0.764
[4], first compound 0.2 µg/mL, partner 0.04 µg/mL	0.594
[4], first compound 0.21 µg/mL, partner 0.01 µg/mL	0.791
[4], first compound 0.21 µg/mL, partner 0.02 µg/mL	0.704
[4], first compound 0.21 µg/mL, partner 0.04 µg/mL	0.382
[4], first compound 0.4 µg/mL, partner 0.01 µg/mL	0.623
[4], first compound 0.4 µg/mL, partner 0.02 µg/mL	0.609
[4], first compound 0.4 µg/mL, partner 0.04 µg/mL	0.431
[4], first compound 0.42 µg/mL, partner 0.01 µg/mL	0.63
[4], first compound 0.42 µg/mL, partner 0.02 µg/mL	0.564
[4], first compound 0.42 µg/mL, partner 0.04 µg/mL	0.175
[4], first compound 0.8 µg/mL, partner 0.04 µg/mL	0.218

Details	Bliss interaction score
[5]	0.0403
[6]	-0.0365
[7]	-0.0461
[8]	0.136
